Results on 19 molecules are retold here after patent publication US6376506B1, “Sulfamide-metalloprotease inhibitors” (Syntex (U.S.A.) LLC, priority 1997, dated 2002).

The target of data set [1] is T1, human collagenase-1 catalytic domain (Homo sapiens, UniProt P03956).
T1 construct: the collagenase-1 catalytic domain was released by treatment with 1 mM of aminophenylmercuric acetate (APMA); ubiquitin (cleaved yes); made in house; host or cells: E. coli
T1 sequence (P03956 100-269 limits assumed): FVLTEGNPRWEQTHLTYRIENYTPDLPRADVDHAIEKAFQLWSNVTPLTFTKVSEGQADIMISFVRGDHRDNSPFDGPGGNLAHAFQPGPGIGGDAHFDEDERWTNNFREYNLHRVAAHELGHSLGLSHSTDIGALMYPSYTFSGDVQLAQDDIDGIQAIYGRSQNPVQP
The experiment in a line: MMP inhibition in vitro, human collagenase-1. The format is biochemical. The note with it: MCA-Pro-Leu-Gly-Leu-DPA-Ala-Arg-NH2 hydrolysis at 37° C.; read-out: Collagenase-I IC50. The protocol: The catalytic domain of human collagenase-1 was expressed as a fusion protein with ubiquitin in E. Coli as described in Gehring, E. R. et al., J. Biol. Chem., 270, 22507, (1995). After purification of the fusion protein, the collagenase-1 catalytic domain was released by treatment with 1 mM of aminophenylmercuric acetate (APMA) for 1 hour at 37° C. and then purified by zinc chelate chromatography.
(§1) The matrix metalloprotease inhibitory activity of compounds of this invention in vitro was determined based on the hydrolysis of MCA-Pro-Leu-Gly-Leu-DPA-Ala-Arg-NH2 (Bachem, Inc.) at 37° C. as described in Knight, C. G., et al., FEBS Lett., 296, 263-266 (1992).
(§2) The matrix metalloprotease enzyme was diluted with assay buffer (50 mM Tricine pH 7.5, 200 mM NaCl, 10 mM CaCl2, and 0.005% Brij-35) containing 10 μmole of above substrate dissolved in DMSO. Compounds of the invention dissolved in DMSO or only DMSO (control samples) were added such that the final DMSO concentration in all assays was 2.5%. The fluorescence changes were monitored with a Perkin-Elmer LS-50B flourimeter using an excitation wavelength of 328 nm and an emission wavelength of 393 nm.

In data set [2] the target is T2, human collagenase-3 catalytic domain (Homo sapiens, UniProt P45452).
T2 construct: After purification, the catalytic domain was released by treatment with 1 mM APMA for 1 hour at 37° C; ubiquitin (N, cleaved yes); made in house; host or cells: E. coli
The experiment in a line: MMP inhibition in vitro, human collagenase-3. Type of data set: biochemical. The settings on record: MCA-Pro-Leu-Gly-Leu-DPA-Ala-Arg-NH2 hydrolysis at 37° C.; read-out: Collagenase-III IC50. The protocol:
The propeptide and catalytic domain portion of human collagcenase-3 was expressed in E. Coli as an N-terminal fusion protein with ubiquitin. After purification, the catalytic domain was released by treatment with 1 mM APMA for 1 hour at 37° C., and then purified by zinc chelate chromatography.
as §1, §2

The test system of data set [3] is bovine nasal cartilage plugs implanted subcutaneously in female Lewis rats. The experiment in a line: Cartilage plug degradation in vivo (cartilage plug implant assay, hydroxyproline content). Details: species or system rat. The settings on record: 8 or 9 days, hydroxyproline content relative to vehicle group.
Data set [4] has as its system collagen matrix of bovine cartilage explants. The experiment in a line: Degradation of cartilage plug in vitro (IL-1 stimulated cartilage explant, hydroxyproline content). The format is cell-based. The settings on record: IL-1-α stimulated bovine cartilage explants, 21 days, hydroxyproline content relative to control; compounds at 10 to 300 nm. The protocol: The ability of the compounds of this invention to inhibit the degradation of the collagen matrix (as judged by release of hydroxyproline) was determined by the cartilage plug degradation assay in vitro by following a slight modification of the method described in Spirito, S., Doughty, E., et al., “Metalloproteinase inhibitors halt collagen breakdown in IL-1 induced bovine nasal cartilage cultures” Inflamm. Res., 44, Supp. 2: S131—S132, (1995).
Cartilage explants prepared from freshly sacrificed bovine knee joints were added to the culture medium (Dubelco's modified eagle medium, Gibco # 21063-001, Gibco BRL Products, Gaithersburg, Md.), without phenol red, but with HEPES, and L-glutamine and fungizone 2.5 μg/ml, gentamicin 50 μg/ml, penicillin 100 U/ml, and streptomycin 100 μg/ml). The cultures were stimulated with IL-1-α at a final concentration of 20 ng/ml. Compounds of Formula (I), were added at concentrations between 10 and 300 nm in DMSO. The control samples contained only L-1-α. The cultures were incubated at 37° C. in an atmosphere of air with 6% CO2 for 21 days during which time the medium was changed twice/week. The cartilage plugs were removed, hydrolyzed and the hydroxyproline content was determined. The MMP inhibitory activity of test materials is the measure of the hydroxyproline content in the test group relative to the vehicle treated group (control group).

Data set [5] relates to TNF-α. The experiment in a line: Inhibition of LPS induced TNF-α production in mice in vivo assay. The settings on record: female Balb/c mice, compound subcutaneously 1 h before LPS i.p., serum TNF-α 1.5 h after LPS. The protocol:
The activity of compounds of this invention in inhibiting the TNF-α release was determined using a minor modification of the methods described in Zanetti, G.; Heumann, D., et. al., “Cytokine production after intravenous or peritoneal Gram-negative bacterial challenge in mice” J. Immunol., 148, 1890, (1992) and Sekut, L., Menius, J. A., et. al., “Evaluation if the significance of related levels of systemic and localized tumor necrosis factor in different animal models of inflammation” J. Lab. Clin. Med., 124, 813, (1994).
Female Balb/c mice were anesthetized and injected subcutaneously with the test compounds dissolved in CMC vehicle or hydroxypropylmethyl cellulose based vehicle. Control animals received only the vehicle. After 1 h, LPS (50 μg/mouse, Sigma #13129, Sigma Chemical Co., St. Louis, Mo.) was injected intraperitoneally. After 1.5 h, blood was collected from the retro-orbital plexus region of the animals in a microtainer serum separator tube (Becton Dickinson, Cat. No. #5960, Becton Dickinson & Co., Franklin Lakes, N.J.). The sera was separated and the amount of TNF-α was determined using the EM-TNFA® kit (Endogen, Woburn, Mass.) by following the manufacturer's protocol.

Data set [6] has as its system Human Monomac 6 cells. The experiment in a line: Inhibition of TNF release in vitro assay (LPS/PMA stimulated). Type of data set: cell-based. The settings on record: Conc. 2 μM, LPS/PMA stimulated Monomac 6 cells, 2 h. The protocol: The activity of compounds of this invention in inhibiting the TNF release was determined, using the a minor modification of the method described in Pradines-Figueres, A. and Raetz, C. R. H., J. Biol. Chem., 267 (32), 23261, (1992).
Human Monomac 6 cells (Ziegler-Heitbrock, H. W. L., et al., Int. J. Cancer, 41, 456, (1988)) were cultured at 37° C. in RPMI 1640 medium containing 10% fetal calf serum to a density of 1×10^5 cells/ml. 0.23 ml of these cells were placed in each well of a tissue culture plate and the cells were incubated for 15 min. The test compounds were dissolved in above mentioned medium and added and the incubation was continued for an additional 15 min. 10 μl of an lipopolysaccharide/phorbol-12-myristate-13-acetate (LPS/PMA) mixture was added such that the final concentration of lipopolysaccharide was 10 ng/ml and the final concentration of phorbol-12-myristate-13-acetate was 30 ng/ml. The cells were incubated for 2 h after which the plate was centrifuged and the medium was removed and analyzed for TNF content. The analysis was performed using a TNF Quantikine® Immunoassay (R & D Systems, Minneapolis, Minn. 55413) by following the manufacturer's protocol.

For `O=C(NO)C1CCCCN1S(=O)(=O)N1CCC(c2c[nH]c3cc(Cl)ccc23)CC1` (racemic) [compound 256], the melting point (as a rule, the temperature, or range, at which the solid turns liquid) lay within 143 to 151 °C. In addition, the IC50 – broadly, the midpoint of a concentration-inhibition curve – in data set [1] came to 26000 nM. Further, in data set [2], the IC50 stood at 33 nM.

For the molecule `O=C(NO)C1CCCCN1S(=O)(=O)N1CCC(c2noc3cc(F)ccc23)CC1` (racemic) [compound 286], the melting point was in the range of 145.8 to 146.9 °C. The IC50 in data set [1] is 29 nM. Further, in data set [2], the 50% inhibitory concentration (IC50) turned out to be 0.063 nM.

In turn, `CC(C)[C@H](C(=O)NO)N(Cc1ccccc1)S(=O)(=O)N1CCCCC1` [compound 1, N-hydroxy-2-(R)-[benzyl-(piperdine-1-sulfonyl)amino]-3-methybutyramide] gave a melting point of 80.6 to 85.7 °C. The IC50 in data set [1] is 550 nM. For the same molecule, in data set [2], the concentration for half-maximal inhibition (IC50) stood at 660 nM.

`CC(C)[C@@H](NS(=O)(=O)N1CCN(c2ccc(Cl)cn2)CC1)C(=O)NO` [compound 50, N-hydroxy-2-(R)-{[4-(5-chloropyridin-2yl)piperazine-1-sulfonyl]amino}-3-methylbutyramide] displayed a melting point of 146.7 to 147 °C. Further, the half-inhibitory concentration (IC50) in data set [1] is 220 nM. In data set [2], the IC50 worked out at 1.3 nM.

Molecule `CC(C)[C@@H](NS(=O)(=O)N1CCN(c2ccc(Cl)cc2)CC1)C(=O)NO` [compound 51, N-hydroxy-2-(R)-{[4-(4-chlorophenyl)piperazine-1-sulfonyl]amino}-3-methylbutyramide] yielded a melting point of 154.1 to 154.8 °C. Also, in data set [1], the IC50 came to 490 nM. Moreover, the IC50 in data set [2] amounted to 2.6 nM.

For the molecule `CC(C)[C@@H](NS(=O)(=O)N1CCC(Oc2ccc(Cl)cc2)CC1)C(=O)NO` [compound 59, N-hydroxy-2-(R)-{[4-(4-chlorophenoxy)piperidine-1-sulfonyl]amino}-3-methylbutyramide], the melting point fell in the range of 139.2 to 139.6 °C. For the same molecule, the “% protection” value in data set [3] turned out to be 58%. Moreover, the 50% inhibitory concentration (IC50) in data set [1] stood at 110 nM. Also, in data set [2], the IC50 was found to be 0.18 nM. The “% protection” value in data set [4] stood at 54%.

Molecule `CC(C)[C@@H](NS(=O)(=O)N1CCN(c2ccc(OCc3ccccc3)cc2)CC1)C(=O)NO` [compound 74, N-hydroxy-2-(R)-{[4-(4-benzyloxyphenyl)piperazine-1-sulfonyl]amino}-3-methylbutyramide] showed a melting point of 149 to 156 °C. In addition, the IC50 in data set [1] is 7600 nM. Also, the IC50 in data set [2] came out at 0.73 nM.

In turn, `CC(C)[C@@H](NS(=O)(=O)N1CCC(Oc2ccc(Cl)cn2)CC1)C(=O)NO` [compound 100, N-hydroxy-2-(R)-{[4-(5-chloropyridin-2-yloxy)piperidine-1-sulfonyl]amino}-3-methylbutyramide] registered a melting point of 97 to 98.4 °C. For the same molecule, the “% protection” value in data set [3] amounted to 40%. For the same molecule, the “% protection” value in data set [4] came to 68%.

Molecule `O=C(NO)[C@H](CSCc1ccccc1)NS(=O)(=O)N1CCN(c2ccc(Cl)cn2)CC1` [compound 102] registered a melting point of 86 to 86.7 °C. Besides, the IC50 in data set [1] turned out to be 338 nM. For the same molecule, in data set [2], the IC50 came to 0.92 nM.

The molecule `CC(C)[C@@H](NS(=O)(=O)N1CCC(c2nc(-c3ccccc3)c[nH]2)CC1)C(=O)NO` [compound 133] displayed a melting point of 141 to 142.3 °C. Further, the IC50 in data set [1] amounted to 20000 nM. In addition, the half-maximal inhibitory concentration (IC50) in data set [2] stood at 18 nM.

`CC(C)[C@@H](NS(=O)(=O)N1CCC(Oc2ccc(F)cc2)CC1)C(=O)NO` [compound 179] registered a melting point of 74.3 to 75.3 °C. Moreover, the IC50 in data set [1] turned out to be 23 nM. Further, the IC50 in data set [2] was determined as 0.073 nM.

`O=C(c1ccc(Cl)cc1)C1CCN(S(=O)(=O)N2CCCC[C@@H]2C(=O)NO)CC1` [compound 242]: the melting point lay within 84.4 to 86.4 °C. In addition, the 50% inhibitory concentration (IC50) in data set [1] is 67 nM. Moreover, in data set [2], the IC50 was found to be 0.063 nM.

`CN(C)C(=O)N1CCN(S(=O)(=O)N2CCC(c3c[nH]c4c(F)c(F)c(F)c(F)c34)CC2)[C@@H](C(=O)NO)C1` [compound 309] had a melting point of 181 to 184 °C. The half-maximal inhibitory concentration (IC50) in data set [1] is above 50000 nM. In addition, in data set [2], the IC50 came out at 500 nM.

`O=C(NO)C1(NS(=O)(=O)N2CCN(c3ccc(Cl)cc3)CC2)CCCCC1` [compound 345, N-hydroxy-1-{[4-(4-chlorophenyl)piperazine-1-sulfonyl]amino}-cyclohexane-1-carboxamide] displayed a melting point of 146.1 to 146.6 °C. For the same molecule, the IC50 in data set [1] is 530 nM. In addition, the IC50 in data set [2] is 6.6 nM.

Turning to `C[C@@H](NS(=O)(=O)N1CC=C(c2ccc(Cl)cc2)CC1)C(=O)NO` [compound 401], the melting point lay in the range of 90.7 to 93 °C. Further, the IC50 in data set [1] came out at 250 nM. In addition, the IC50 in data set [2] was 0.19 nM.

Take `C[C@@H](NS(=O)(=O)N1CCN(c2ccc(Cl)cc2)CC1)C(=O)O` [compound 414]: the concentration for half-maximal inhibition (IC50) in data set [1] is above 50000 nM; in data set [2], 3400 nM.

Consider `CN(Cc1ccccc1)S(=O)(=O)N(CC(=O)O)Cc1ccccc1` [compound 430], for which the IC50 in data set [1] turned out to be 2200 nM; in data set [2], 890 nM.

`C[C@H](C(=O)O)N(Cc1ccccc1)S(=O)(=O)NCc1ccccc1` [compound 431]: the half-maximal inhibitory concentration (IC50) is above 50000 nM in data set [1] and 6500 nM in data set [2].

On to “N-hydroxy-4-(morpholine-4-ylcarbonyl)piperazine-1-sulfonyl]-4-(S)-hydroxypiperidine-2-(R)-carboxamide [compound 321]”, for which the results for the “% inhibition” value in data set [5] and in data set [6] were 50% and 93%, respectively.
